Columns and labels:
[1] = dogs, after treatment; cited from earlier work
[2] = human, in vivo; cited from earlier work
[3] = Lovastatin rat dosing study: liver tissue examination; format: in vivo, rats
[4] = oral doses; cited from earlier work
[5] = AY-25329 repeated-dose rat study: serum chemistry and light microscopy; format: in vivo, rats
Source text: The present inventors have noted indications of liver and renal effects of AY-25329 by changes in serum chemistry. […] Most of these markers of renal and liver dysfunction remained altered throughout the 14 day study period.

[6] = 0.1, 1, 2, 3, 4 mL/kg ip; 2.5 mL/kg po; peak within 48 hours post dose; cited from earlier work
[7] = 180 reported cases; cited from earlier work

Q: With `Cl.Nc1nc2c(Cc3ccsc3)c[nH]c2c(=O)[nH]1.O` [CI-1000, 4H-pyrrolo:3,2-d:pyrimidin-4-one, 2-amino-3,5-dihydro-7-(3-thienylmethyl)-monohydrochloride monohydrate] as the compound, how does the “serum ALT levels” value [1] read?
A: increased serum ALT levels

Q: Which “patients with elevated levels of hepatic enzymes” value [2] does the source give for `CCCC(CCC)C(=O)O` [valproate, n-dipropylacetic acid] here?
A: about 40 % of patients

Q: For `CC[C@H](C)C(=O)O[C@H]1C[C@@H](C)C=C2C=C[C@H](C)[C@H](CC[C@@H]3C[C@@H](O)CC(=O)O3)[C@H]21` [lovastatin], which “effects in liver tissue” value ([3]; 9 or 90 mg/kg twice a day, after 6 or after 24 hours) is on record?
A: no effects were noted

Q: What about the liver cell changes ([3]; after 14 days of treatment at the higher dosage (90 mg/kg twice a day)) of the same compound?
A: abnormal vacuolization of the cytoplasm

Q: And the “metabolites excreted in the urine” value [4]?
A: less than 13%

Q: With `O=C(CCN1CCN2CCCC2C1)N1c2ccccc2Sc2ccc(Cl)cc21` (stereo not shown) [AY-25329] as the compound, how does the “histopathology of kidney and liver” value ([5]; 14 days of repeated dosing, 250 mg/kg/day) read?
A: nephrosis and alterations in the peripheral lobes of the liver and in the cytoplasm of hepatocytes were evident

Q: What about the “light microscopic analysis of the liver” value ([5]; as early as 6 and 24 hours) of the same compound?
A: increased number of hepatocytic mitotic figures and decreased glycogen content

Q: What about the “serum levels of creatinine, BUN, ALT, triglycerides and cholesterol” value ([5]; as early as 6 hours after the first dose, most markers remained altered throughout the 14 day study period) of the same compound?
A: statistically significant increases

Q: Which “peak increase of ALT and AST levels” value [6] does the source give for `ClC(Cl)(Cl)Cl` [CCl4, carbon tetrachloride] here?
A: 5-10 fold

Q: With `O=C(O)Cc1ccccc1Nc1c(Cl)cccc1Cl` [diclofenac] as the compound, how does the “jaundice among symptomatic patients” value [7] read?
A: 75 % of the symptomatic patients

— patent publication US20070055448A1, “Primary rat hepatocyte toxicity modeling” (Gene Logic Inc., priority 2003, published 2007)
